The test concerns the target T1, recombinant mouse NPY5-receptor (mNPY5) (Mus musculus, UniProt O70342).
T1 construct: The full-length cDNA encoding the mouse NPY5 (mNPY5) receptor was amplified from mouse brain cDNA; expressed in transfected cells; membrane preparation
T1 sequence (O70342 1-466): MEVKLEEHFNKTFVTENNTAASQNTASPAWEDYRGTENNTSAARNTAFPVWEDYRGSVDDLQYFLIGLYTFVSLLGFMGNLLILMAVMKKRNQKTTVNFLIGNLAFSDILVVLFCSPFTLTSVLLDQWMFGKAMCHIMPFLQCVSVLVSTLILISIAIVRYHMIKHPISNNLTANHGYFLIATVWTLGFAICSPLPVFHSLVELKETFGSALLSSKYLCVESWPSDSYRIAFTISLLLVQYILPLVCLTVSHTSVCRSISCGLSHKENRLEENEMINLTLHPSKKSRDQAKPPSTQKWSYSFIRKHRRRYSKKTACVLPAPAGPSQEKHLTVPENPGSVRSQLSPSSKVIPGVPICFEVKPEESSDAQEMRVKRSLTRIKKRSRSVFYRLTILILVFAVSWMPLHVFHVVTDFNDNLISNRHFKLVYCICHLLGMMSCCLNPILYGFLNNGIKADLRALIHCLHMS
The experiment in a line: Radioligand competition binding. As to conditions: membranes of HEK293 cells expressing mNPY5; 100 pM [125I]labelled peptide YY (PYY); 1 h at 22° C.; read-out: NPY5-R (mouse) IC50. From the text: The full-length cDNA encoding the mouse NPY5 (mNPY5) receptor was amplified from mouse brain cDNA using specific primers, designed based on the published sequence, and Pfu DNA-Polymerase. The amplification product was subcloned into the mammalian expression vector pcDNA3 using Eco RI and XhoI restriction sites. Positive clones were sequenced and one clone, encoding the published sequence was selected for generation of stable cell clones.
Human embryonic kidney 293 (HEK293) cells were transfected with 10 μg mNPY5 DNA using the lipofectamine reagent. Two days after transfection, geneticin selection (1 mg/ml) was initiated and several stable clones were isolated. One clone was further used for pharmacological characterization.
Human embryonic kidney 293 cells (HEK293), expressing recombinant mouse NPY5-receptor (mNPY5) were broken by three freeze/thawing cycles in hypotonic Tris buffer (5 mM, pH 7.4, 1 mM MgCl2), homogenized and centrifuged at 72,000×g for 15 min. The pellet was washed twice with 75 mM Tris buffer, pH 7.4, containing 25 mM MgCl2 and 250 mM sucrose, 0.1 mM phenylmethylsulfonylfluoride and 0.1 mM 1,10-pheneanthrolin, resuspended in the same buffer and stored in aliquots at −80° C. Protein was determined according to the method of Lowry using bovine serum albumine (BSA) as a standard. […]

SMILES strings stand for the structures.

For the molecule `Cc1ccccc1C(=O)c1cnc(NC2CCN(S(=O)(=O)c3cccs3)CC2)s1` [Example 41, {2-[1-(Thiophene-2-sulfonyl)-piperidin-4-ylamino]-thiazol-5-yl}-o-tolyl-methanone], the IC50 stood at 0.77 nM.
`Cc1ccccc1C(=O)c1cnc(NCC2CCN(S(=O)(=O)N(C)C)CC2)s1` [Example 18, 4-{[5-(2-Methyl-benzoyl)-thiazol-2-ylamino]-methyl}-piperidine-1-sulfonic acid dimethylamide]: the IC50 was determined as 0.85 nM.
For `CCc1ccccc1C(=O)c1cnc(NC2CCN(S(=O)(=O)c3cccs3)CC2)s1` [Example 32, (2-Ethyl-phenyl)-{2-[1-(thiophene-2-sulfonyl)-piperidin-4-ylamino]-thiazol-5-yl}-methanone], the 50% inhibitory concentration (IC50) was 0.75 nM.
